These results are taken from patent US20080317858A1, “FORMULATIONS OF N-(2-ACETYL-4,6-DIMETHYLPHENYL)-3--2-THIOPHENECARBOXAMIDE” (priority 2007, published 2008).

With `CC(=O)c1cc(C)cc(C)c1NC(=O)c1sccc1S(=O)(=O)Nc1onc(C)c1C` [N-(2-acetyl-4,6-dimethylphenyl)-3-{[(3,4 dimethyl-5-isoxazolyl)amino]sulfonyl}-2-thiophenecarboxamide], the melting point – broadly, the temperature, or range, at which the solid turns liquid – lay in the range of 158 to 160 °C.
